# Results: patent US9322066B2, “Predictors for cancer treatment” (priority 2011, dated 2016)
# Tested on: relapsed or refractory, rituximab-naive or -sensitive follicular B-cell NHL
# Test: Time to progression (TTP), Vc-R vs rituximab study, by biomarker
# Format: in vivo, human
# Parameters: TTP Median: unit not given here
# Source text: Non-Hodgkin lymphoma (NHL) encompasses several unique malignant lymphoid disease entities that vary in clinical behavior, morphologic appearance, immunologic, and molecular phenotype. […] A randomized, open-label, active-controlled, multicenter, multinational, prospective study to compare the efficacy and safety of the combination of bortezomib and rituximab (Vc-R) to single-agent rituximab in subjects who have relapsed or refractory, rituximab-naive or -sensitive follicular B-cell NHL was performed.
# Subjects were centrally randomized to Treatment Groups A (Vc-R) or B (rituximab) in a 1:1 ratio taking into account the following stratification factors: • Follicular Lymphoma International Prognostic Index (FLIPI) score (low [0 or 1 factor], intermediate [2 factors], high [≧3 factors]); • Prior rituximab therapy (yes, no); • Time since last dose of anti-lymphoma therapy (≦1 year, >1 year); • Region (United States/Canada, European Union, Rest of World).
# For single-marker association analyses and pair-wise comparisons, a log rank test and Cox proportional hazard model was utilized for assessments of PFS, TTP, and OS between the treatment groups. Kaplan-Meier curves were utilized to estimate the distribution differences between groups in the time-to-event analyses. Comparison of the response rates between the treatment groups was conducted using the Fishers exact test. Single-marker association analyses were stratified by the covariates.
# For pair-wise comparison analysis, biomarker pairs were formed by combinations of two markers. A log rank test was utilized for assessments of PFS, TTP, and OS between the treatment groups in the subpopulation defined by biomarker pairs. Kaplan-Meier curves were utilized to estimate the distribution differences between groups in the time-to-event analyses. Comparison of the response rates between the treatment groups was conducted using the Fishers exact test. Methods of Analysis for the multiple biomarker comparison models can be found in section 4.6.
# [1] = 20S % NUCLEAR STAINING: 30-50, 2 Prior Lines of Therapy
# [2] = 20S % NUCLEAR STAINING: 60-70, Male
# [3] = 20S % POSITIVE CYTOPLASMIC SIGNAL: 0-20, >65 years old
# [4] = 20S % POSITIVE CYTOPLASMIC SIGNAL: 95-100, Ann Arbor Stage IV
# [5] = 20S INTENSITY CYTOPLASMIC SIGNAL: ≧3+, Male
# [6] = CD68 OVERALL POSITIVE: 0-25, 2 Prior Lines of Therapy
# [7] = CD68 OVERALL POSITIVE: 0-25, ≦1 year since last anti-lymphoma treatment
# [8] = CD68 OVERALL POSITIVE: 26-50, Ann Arbor Stage IV
# [9] = CD68 OVERALL POSITIVE: 26-50, High FLIPI Score
# [10] = CD68 OVERALL POSITIVE: 26-50, No High Tumor Burden
# [11] = CD68 OVERALL POSITIVE: 26-50, Rest of World
# [12] = CD68 OVERALL POSITIVE: 26-50, ≦65 years old
# [13] = CD68 POSITIVE FOLLICULAR: 0-25, >1 year since last anti-lymphoma treatment
# [14] = CD68 POSITIVE FOLLICULAR: 26-50, 1 Prior Line of Therapy
# [15] = CD68 POSITIVE FOLLICULAR: 26-50, High FLIPI Score
# [16] = CD68 POSITIVE FOLLICULAR: 26-50, No High Tumor Burden
# [17] = CD68 POSITIVE FOLLICULAR: 26-50, No Subgroup
# [18] = CD68 POSITIVE FOLLICULAR: 26-50, White
# [19] = CD68 POSITIVE FOLLICULAR: 26-50, ≦65 years old
# [20] = CD68 POSITIVE FOLLICULAR: 51-75, Female
# [21] = CD68 POSITIVE PERIFOLLICULAR: 0-25, 2 Prior Lines of Therapy
# [22] = CD68 POSITIVE PERIFOLLICULAR: 26-50, Male
# [23] = CD68 POSITIVE PERIFOLLICULAR: 26-50, Other
# [24] = CD68 POSITIVE PERIFOLLICULAR: >75, 1 Prior Line of Therapy
# [25] = CD68 POSITIVE PERIFOLLICULAR: >75, ≦65 years old
# [26] = P27 % NUCLEI POSITIVE: 30-50, Ann Arbor Stage IV
# [27] = P27 % NUCLEI POSITIVE: 60-70, Intermediate FLIPI Score
# [28] = P27 SIGNAL INTENSITY: ≧2+, 4 Prior Lines of Therapy
# [29] = P27 SIGNAL INTENSITY: ≧2+, Ann Arbor Stage IV
# [30] = P27 SIGNAL INTENSITY: ≧2+, Male
# [31] = P27 SIGNAL INTENSITY: ≧2+, ≦65 years old
# [32] = P65 % NUCLEAR STAINING: 0, Male
# [33] = P65 % NUCLEAR STAINING: 0, No Prior Rituximab Therapy
# [34] = P65 % NUCLEAR STAINING: 0, ≦65 years old
# [35] = P65 % POSITIVE CYTOPLASMIC SIGNAL: >90%, 1 Prior Line of Therapy
# [36] = P65 % POSITIVE CYTOPLASMIC SIGNAL: >90%, >1 year since last anti-lymphoma treatment
# [37] = P65 % POSITIVE CYTOPLASMIC SIGNAL: >90%, Ann Arbor Stage IV
# [38] = P65 % POSITIVE CYTOPLASMIC SIGNAL: >90%, High FLIPI Score
# [39] = P65 % POSITIVE CYTOPLASMIC SIGNAL: >90%, Male
# [40] = P65 % POSITIVE CYTOPLASMIC SIGNAL: >90%, No Prior Rituximab Therapy
# [41] = P65 % POSITIVE CYTOPLASMIC SIGNAL: >90%, No Subgroup
# [42] = P65 % POSITIVE CYTOPLASMIC SIGNAL: >90%, White
# [43] = P65 % POSITIVE CYTOPLASMIC SIGNAL: >90%, ≦65 years old
# [44] = P65 % POSITIVE CYTOPLASMIC SIGNAL: ≦90%, Intermediate FLIPI Score
# [45] = P65 INTENSITY CYTOPLASMIC SIGNAL: ≦1+, Ann Arbor Stage III
# [46] = P65 INTENSITY CYTOPLASMIC SIGNAL: ≧2+, High FLIPI Score
# [47] = P65 INTENSITY CYTOPLASMIC SIGNAL: ≧2+, ≦65 years old
# [48] = PSMB1/A171S: G/G, Ann Arbor Stage IV, IRC review
# [49] = PSMB1/A171S: G/G, High Tumor Burden, IRC review
substance,measurement,setting,value
rituximab,TTP Evt/N,[1],11/13
same,TTP Median,[1],239
same,TTP Evt/N,[2],13/16
same,TTP Median,[2],212
same,TTP Evt/N,[3],5/6
same,TTP Median,[3],278
same,TTP Evt/N,[4],43/56
same,TTP Median,[4],278
same,TTP Evt/N,[5],20/27
same,TTP Median,[5],280
same,TTP Evt/N,[6],6/8
same,TTP Median,[6],142
same,TTP Evt/N,[7],11/18
same,TTP Median,[7],424
same,TTP Evt/N,[8],44/56
same,TTP Median,[8],277
same,TTP Evt/N,[9],36/45
same,TTP Median,[9],277
same,TTP Evt/N,[10],37/54
same,TTP Median,[10],357
same,TTP Evt/N,[11],40/51
same,TTP Median,[11],277
same,TTP Evt/N,[12],57/77
same,TTP Median,[12],278
same,TTP Evt/N,[13],23/34
same,TTP Median,[13],357
same,TTP Evt/N,[14],26/39
same,TTP Median,[14],349
same,TTP Evt/N,[15],31/37
same,TTP Median,[15],205
same,TTP Evt/N,[16],29/44
same,TTP Median,[16],351
same,TTP Evt/N,[17],65/91
same,TTP Median,[17],277
same,TTP Evt/N,[18],53/77
same,TTP Median,[18],334
same,TTP Evt/N,[19],52/67
same,TTP Median,[19],270
same,TTP Evt/N,"CD68 POSITIVE FOLLICULAR: 51-75, 3 Prior Lines of Therapy",1/4
same,TTP Evt/N,[20],14/26
same,TTP Median,[20],708
same,TTP Evt/N,[21],7/8
same,TTP Median,[21],70
same,TTP Evt/N,[22],22/30
same,TTP Median,[22],239
same,TTP Evt/N,[23],4/4
same,TTP Median,[23],128
same,TTP Evt/N,[24],13/18
same,TTP Median,[24],275
same,TTP Evt/N,[25],17/23
same,TTP Median,[25],275
same,TTP Evt/N,[26],15/19
same,TTP Median,[26],278
same,TTP Evt/N,[27],6/13
same,TTP Median,[27],513
same,TTP Evt/N,[28],9/15
same,TTP Median,[28],348
same,TTP Evt/N,[29],64/85
same,TTP Median,[29],283
same,TTP Evt/N,[30],52/72
same,TTP Median,[30],280
same,TTP Evt/N,[31],104/153
same,TTP Median,[31],281
same,TTP Evt/N,[32],56/74
same,TTP Median,[32],280
same,TTP Evt/N,[33],77/102
same,TTP Median,[33],322
same,TTP Evt/N,[34],97/138
same,TTP Median,[34],287
same,TTP Evt/N,[35],56/89
same,TTP Median,[35],349
same,TTP Evt/N,[36],77/117
same,TTP Median,[36],357
same,TTP Evt/N,[37],67/87
same,TTP Median,[37],275
same,TTP Evt/N,[38],61/83
same,TTP Median,[38],239
same,TTP Evt/N,[39],54/72
same,TTP Median,[39],271
same,TTP Evt/N,[40],80/112
same,TTP Median,[40],345
same,TTP Evt/N,[41],139/204
same,TTP Median,[41],334
same,TTP Evt/N,[42],119/179
same,TTP Median,[42],345
same,TTP Evt/N,[43],108/154
same,TTP Median,[43],278
same,TTP Evt/N,[44],5/16
same,TTP Median,[44],567
same,TTP Evt/N,[45],7/11
same,TTP Median,[45],204
same,TTP Evt/N,[46],60/80
same,TTP Median,[46],275
same,TTP Evt/N,[47],105/152
same,TTP Median,[47],287
same,TTP Evt/N,[48],95/127
same,TTP Median,[48],278
same,TTP Evt/N,[49],110/147
same,TTP Median,[49],273
same,TTP Evt/N,"PSMB1/A171S: G/G, ≦65 years old, IRC review",131/198
